Reference: patent publication US9714245B2, “Carboline compounds usable in the treatment of neurodegenerative diseases” (ALZPROTECT, priority 2013, dated 2017)

What was measured:
SY5Y-APPWT cells = test: Cytotoxicity evaluation (MTS assay); format: cell-based, Human; settings: comparative statement
Method: (§1) Human neuroblastoma cell line SY5Y-APP^WT was used to assess the cytotoxic effects of each compound. SY5Y-APP^WT cells were seeded at 20000 cells/well onto 96-well plates and were cultured in Dulbecco's modified Eagle medium (DMEM, Invitrogen) supplemented with 10% fetal calf serum (PAA), 2 mM L-glutamine (Invitrogen), 1 mM non-essential amino acids (Invitrogen), 50 units/ml penicillin/streptomycin (Invitrogen), and 200 μg G418=geneticin (Invitrogen) (selection for cells expressing APP) in a 5% CO2 humidified incubator at 37° C. After 24 h, the cells were washed and incubated with the compound at 0.1; 0.3; 1; 3; 10; 30 and 100 μM or with DMSO as control diluted in the same culture medium at 37° C. in 5% CO2. After 24 h of treatment, cytotoxicity was determined by using colorimetric MTS assay (CellTiter 96® Aqueous One Solution Cell Proliferation Assay-MTS Promega) according to the protocol of the manufacturer. Absorbance was read at 490 nm and results were expressed as % from control condition considered as 100%.

[1] = Cytotoxicity evaluation (MTS assay); format: cell-based, Human; settings: human, SY5Y-APPWT neuroblastoma cells (expressing APP); SY5Y-APPWT cells, 24 h treatment, MTS
Method: as §1

sAPPα = test: Soluble APPα quantification (ELISA); format: cell-based, Human; settings: 24 h, control considered as 100
Method: Soluble APPα Quantification
Human neuroblastoma cell line SKNSH-SYSY APP′ was cultured in Dulbecco's modified Eagle medium (Invitrogen) supplemented with 10% fetal calf serum (PAA), 2 mM L-glutamine (Invitrogen), 1 mM non-essential amino acids (Invitrogen), 50 units/ml penicillin/streptomycin (Invitrogen), and 200 μg G418=geneticin (Invitrogen) (selection for cell expressing APP) in a 5% CO2 humidified incubator at 37° C. Cells were counted and seed at 400000 cells/well into a 12-wells plate for 24 h. The day after, cells were treated with 700 μL/well of drug at 0.3; 1; 3 and 10 μM and incubated for 24 h in a 5% CO2 incubator at 37° C. After treatment, culture medium samples were collected and stored at −80° C. until analysis. Samples corresponding to the 1 and 10 μM treatment were centrifuged 1500 rpm for 5 min at 4° C. sAPPα quantification by ELISA was done with Human sAPPα Assay Kit-IBL (Cat#27734) in accordance with manufacturer's protocol. Samples were diluted at 1:150 in the diluent buffer provided in the kit. Each sample was loaded in duplicate onto the 96 well-plate. Results are expressed in ng/ml and then compared to control conditions (considered as 100 in arbitrary units) and are presented for two concentrations of the drug: 1 and 10 μM.

secreted Aβ1-40 = test: Aβ1-40 secretion by APP-transfected neuroblastoma cells (ELISA); format: cell-based; settings: Homo sapiens, Neuroblastoma cell; SKNSH-SYSY APPWT cells; concentration decreasing secreted Aβ1-40 to 50% of basal amount
Method: (§2) Cell Cultures and Transfections to Test Activity on Aβ1-40 and Aβ1-42 Secretion
(§3) Human neuroblastoma cell line SKNSH-SYSY (ATCC® Catalog No. CRL-2266™), HEK (ATCC® CRL-1573™) and COS-1 (ATCC® CRL-1650™) cells were maintained in Dulbecco's modified Eagle medium (DMEM, GIBCO BRL) supplemented with 10% fetal calf serum, 2 mM L-glutamine, 1 mM non-essential amino acids, 50 units/ml penicillin/streptomycin (Invitrogen, France) in a 5% CO2 humidified incubator at 37° C. APP695 cDNA was subcloned into eukaryotic expression vector pcDNA3 (Invitrogen), allowing for a G418 (Invitrogen) selection of clones. This APP cDNA coding for the 695 amino acid long isoform was transfected into SKNSH-SYSY cells using the ethyleneimine polymer ExGen 500 (Euromedex) according to the manufacturer's instructions. The cells expressing APP (SKNSH-SYSY APP^WT) were selected by the addition of 200 μg/ml G418 in the cell medium. To quantify AR which released in the cell culture medium, the collected medium was spun at 200×g to eliminate the cell debris. The concentrations of secreted Aâ1-40 and Aβ1-42 were determined using the Human Aβ (1-40) Assay Kit (IBL) or the INNOTEST™ beta-Amyloid (1-42) ELISA Kit (Innogenetics), according to manufacturer's instructions. The results were expressed as IC50, i.e. the concentration able to decrease to 50% the basal amount of secreted Aβ peptide 1-40 and 1-42.

secreted Aβ1-42 = test: Aβ1-42 secretion by APP-transfected neuroblastoma cells (ELISA); format: cell-based; settings: Homo sapiens, Neuroblastoma cell; SKNSH-SYSY APPWT cells; concentration decreasing secreted Aβ1-42 to 50% of basal amount
Method: as §2, §3

AICD = test: Quantification of AICD by Western blot in SY5Y-APPWT cells; format: cell-based, Human; settings: compared to a control with a value of 100
Method: Quantifications of APP-CTFs and AICD
After treatment, SY5Y-APP^WT cells were scrapped and lysed in 1× Lysis Buffer (250 mM NaCl, 50 mM Tris, pH 8.8, 5 mM EDTA, 2.5% Triton X-100, 1% Deoxycholate, 0.1% SDS). For the Western blotting, an equal amount of total proteins (20 μg/lane) was loaded on a 16.5% Tris-Tricine or 8-16% Tris-Glycine polyacrylamide gel.
SDS-polyacrylamide gel electrophoresis (PAGE) was performed using the Criterion™ Tris-Tricine-precast or Bis-Tris-precast criterion gels (Bio-Rad Bioresearch division). Proteins were transferred to a […] nitrocellulose membrane (Hybond, Amersham Biosciences) at 2.5 mA/cm2 per gel using the Criterion™ Blotter system (Amersham Biosciences), according to the manufacturer's instructions. Proteins were reversibly stained with Ponceau Red in order to check the quality of the transfer of protein. The membranes were blocked in 25 mM Tris-HCl pH 8.0, 150 mM NaCl, 0.1% Tween-20 (v/v) and 5% (w/v) of skimmed milk for 30 min. Membranes were incubated overnight at 4° C. with appropriate dilution of the primary antibodies, and were incubated for 1 h at room temperature with secondary antibody. […] Quantifications were calculated with Image J software (NIH) and the data were collected using Excel Software (Microsoft). The loading variations between Western blot lanes were normalized according to the tubulin signal. Quantification of CTFα and AICD were compared to control conditions (considered as 100 in arbitrary units) and are presented for two concentrations of the drug: 1 and 10 μM.

[2] = Metabolic stability (method not described); settings: comparative statement
CTFα = test: In vivo chronic treatment, CTFα in brain tissue; parameters: species or system C57Bl6 mice; settings: 12 weeks in drinking water, 3 mg/kg
Method: In Vivo Chronic Treatment
Female C57Bl6 mice of 4 month-old were treated with either vehicle (control) or drug at 1 and 3 mg/kg (n=10 per group) for 12 weeks in drinking water. First of all, all mice were weighted and distributed in each cage in order to have approximately the same average of weight±SD per cage. Each concentration of product as well as vehicule was prepared in sterile bottles and the bottles were kept at room temperature protected from light. The drinking bottles were filled weekly and weighted. Volume consumed was calculated by weighting each bottle after each week and the remaining volume was discarded. After 12 weeks, mice were sacrificed and their troncal blood was collected and stored at 4° C. Brains were immediately removed to dissect the Frontal Cortex, the Cortex around the Hippocampus and the Hippocampus. These areas were stored at −80° C. until use. Blood was then centrifuged at 2100×g for 5 min. Resulting plasma was used to quantify the circulating drug and brain tissues were used for biochemical determinations (PFC: prefrontal cortex and HIP: hippocampus).

Fc1ccc2[nH]c3c(c2c1)CN(CCCN1CCN(CCCN2CCCC2)CC1)CC3 [Compound 3.1f, 8-Fluoro-2-{3-[4-(3-(pyrrolidin-1-yl)propyl)piperazin-1-yl]propyl}-2,3,4,5-tetrahydro-1H-pyrido[4,3-b]indole]
toxicity (in words) (SY5Y-APPWT cells): less toxic
CC50 at 24 h [1]: > 100 µM
sAPPα (10 μM) (sAPPα): 100 arbitrary units
IC50 (secreted Aβ1-40): 3 µM
IC50 (secreted Aβ1-42): 1 µM
AICD (10 μM) (AICD): 1011 arbitrary units
metabolic stability (in words) [2]: metabolically more stable
increase of CTFα in hippocampus (HIP) (CTFα): 25%
increase of CTFα in prefrontal cortex (PFC) (CTFα): 20%
